Results as given in patent US9701627B2, “LRRK2 GTP binding inhibitors for treatment of Parkinson's disease and neuroinflammatory disorders” (University of Maryland, Baltimore, priority 2014, dated 2017).

Key:
[1] = test system: SH-SY5Y cells expressing mutant G2019S-LRRK2; assay: TUNEL assay in SH-SY5Y cells expressing mutant LRRK2; assay type: cell-based, human; conditions: 100 nM
Method: Expression of mutant G2019S-LRRK2 led to neuronal degeneration in both SH-SY5Y and mouse primary cortical neurons as assessed by cell viability and DNA fragmentation (TUNEL) assays as previously described. […] To further confirm these findings, mouse primary cortical neurons were used to assess the effects of 70 and 68. Treatment of 70 (2 and 5 nM) and 68 (5 and 10 nM) protected against mutant LRRK2-induced neuronal degeneration (FIG. 15, panels (a) and (c)). Moreover, 70 and 68 both decreased the TUNEL-positive SH-SY5Y cells expressing mutant LRRK2 (FIG. 15, panel (d)).
SH-SY5Y cell viability assays were conducted as described. Cells were co-transfected with GFP and various pcDNA3.1-LRRK2 plasmids at a 1:15 ratio for 24 h in 10% FBS OPTI-I media and then changed to DMEM with N2 supplement for 24 h. Compounds were added after 4-h transfection. Cell viability was measured by counting the healthy viable cells that contained at least one smooth extension (neurite) that was twice the length of the cell body from 20 randomly selected fields using fluorescence microscopy. TUNEL assays were performed according to the manufacturer's instructions as described previously. The experiments were repeated three times in duplicate. The quantification for LRRK2 toxicity was performed by an investigator who was blind to transfection groups.

G2019S-LRRK2 = molecular target: T1, G2019S-LRRK2 (Homo sapiens, UniProt Q5S007, G2019S); assay: LRRK2 phosphorylation (kinase) assay in HEK293T cells expressing G2019S-LRRK2; assay type: cell-based; conditions: 1 h
T1 construct: expressed in transfected cells; host or cells: HEK293T
T1 sequence (Q5S007 whole entry G2019S): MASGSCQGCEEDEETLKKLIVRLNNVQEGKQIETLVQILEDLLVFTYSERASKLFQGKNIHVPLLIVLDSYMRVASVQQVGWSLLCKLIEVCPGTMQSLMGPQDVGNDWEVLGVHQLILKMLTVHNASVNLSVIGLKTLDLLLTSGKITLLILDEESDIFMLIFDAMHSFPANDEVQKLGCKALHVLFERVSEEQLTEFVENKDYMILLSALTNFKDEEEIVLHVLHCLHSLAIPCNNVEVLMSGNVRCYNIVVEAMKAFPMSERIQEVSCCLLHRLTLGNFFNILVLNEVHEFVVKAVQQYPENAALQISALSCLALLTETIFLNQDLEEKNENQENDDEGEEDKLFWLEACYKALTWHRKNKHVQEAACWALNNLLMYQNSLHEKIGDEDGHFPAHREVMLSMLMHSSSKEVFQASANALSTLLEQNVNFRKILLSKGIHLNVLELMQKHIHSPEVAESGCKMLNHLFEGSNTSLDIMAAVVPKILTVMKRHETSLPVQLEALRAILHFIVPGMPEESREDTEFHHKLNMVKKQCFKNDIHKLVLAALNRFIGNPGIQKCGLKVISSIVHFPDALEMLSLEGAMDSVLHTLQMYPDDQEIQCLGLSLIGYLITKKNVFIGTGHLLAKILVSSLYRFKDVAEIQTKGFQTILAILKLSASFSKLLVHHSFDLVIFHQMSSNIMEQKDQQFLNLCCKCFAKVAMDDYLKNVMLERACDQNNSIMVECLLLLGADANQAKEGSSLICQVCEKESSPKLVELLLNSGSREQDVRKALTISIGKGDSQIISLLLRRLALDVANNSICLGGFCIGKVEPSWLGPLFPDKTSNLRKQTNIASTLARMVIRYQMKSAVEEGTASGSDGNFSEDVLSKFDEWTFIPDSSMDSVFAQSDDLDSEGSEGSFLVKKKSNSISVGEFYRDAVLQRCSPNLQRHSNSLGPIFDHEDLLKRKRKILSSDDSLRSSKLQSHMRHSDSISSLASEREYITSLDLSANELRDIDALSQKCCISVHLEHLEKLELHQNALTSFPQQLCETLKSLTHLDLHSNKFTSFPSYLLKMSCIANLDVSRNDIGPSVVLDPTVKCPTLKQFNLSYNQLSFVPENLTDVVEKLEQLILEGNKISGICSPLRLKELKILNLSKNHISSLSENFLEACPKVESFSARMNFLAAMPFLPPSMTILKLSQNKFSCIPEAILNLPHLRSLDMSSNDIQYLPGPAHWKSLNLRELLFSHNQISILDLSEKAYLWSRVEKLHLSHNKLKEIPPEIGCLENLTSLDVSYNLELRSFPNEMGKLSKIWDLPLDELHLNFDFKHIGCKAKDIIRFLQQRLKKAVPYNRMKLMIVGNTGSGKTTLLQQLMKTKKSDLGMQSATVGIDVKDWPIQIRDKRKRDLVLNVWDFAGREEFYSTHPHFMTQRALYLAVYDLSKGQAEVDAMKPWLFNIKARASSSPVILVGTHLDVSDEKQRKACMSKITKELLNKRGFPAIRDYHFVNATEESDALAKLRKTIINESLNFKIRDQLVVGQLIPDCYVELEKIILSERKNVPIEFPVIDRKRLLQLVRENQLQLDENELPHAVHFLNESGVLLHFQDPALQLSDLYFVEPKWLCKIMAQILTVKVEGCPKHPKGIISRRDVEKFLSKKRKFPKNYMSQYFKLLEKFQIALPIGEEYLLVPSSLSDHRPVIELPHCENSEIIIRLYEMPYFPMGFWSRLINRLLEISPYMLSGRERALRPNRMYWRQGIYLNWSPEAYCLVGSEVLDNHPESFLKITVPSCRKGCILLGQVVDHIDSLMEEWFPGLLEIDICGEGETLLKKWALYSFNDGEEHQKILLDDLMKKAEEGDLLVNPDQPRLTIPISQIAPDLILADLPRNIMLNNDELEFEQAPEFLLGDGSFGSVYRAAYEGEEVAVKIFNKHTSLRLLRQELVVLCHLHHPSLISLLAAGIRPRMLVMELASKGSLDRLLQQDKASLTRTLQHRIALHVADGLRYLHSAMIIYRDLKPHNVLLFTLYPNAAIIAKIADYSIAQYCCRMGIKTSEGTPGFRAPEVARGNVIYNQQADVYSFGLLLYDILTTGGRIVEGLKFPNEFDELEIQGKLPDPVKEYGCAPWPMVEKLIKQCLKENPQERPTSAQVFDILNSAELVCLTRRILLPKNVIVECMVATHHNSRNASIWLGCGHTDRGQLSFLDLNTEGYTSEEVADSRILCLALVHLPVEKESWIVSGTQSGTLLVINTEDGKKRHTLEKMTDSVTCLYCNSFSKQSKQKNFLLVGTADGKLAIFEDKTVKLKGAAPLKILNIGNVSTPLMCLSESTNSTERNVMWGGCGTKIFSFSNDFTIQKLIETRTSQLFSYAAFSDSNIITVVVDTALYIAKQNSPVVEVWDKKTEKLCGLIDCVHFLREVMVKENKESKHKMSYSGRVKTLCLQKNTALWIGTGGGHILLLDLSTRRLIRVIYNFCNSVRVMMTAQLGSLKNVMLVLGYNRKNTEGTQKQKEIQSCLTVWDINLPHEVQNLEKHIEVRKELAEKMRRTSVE
Method: LRRK2 kinase assay was adapted from previous studies using autophosphorylation of cell lysates or brain homogenates. Briefly, HEK 293T were transiently transfected with various LRRK2 variants or kinase domain fragments for 36 h, followed by no serum starvation for 12 h, and then treated with compound 70 and 68 for 1 h. The cells were harvested using lysis buffer (Cell Signaling). Mouse brains were homogenated using RIPA buffer (Cell Signaling). The resulting cell lysates or brain homogenates were immunoprecipitated using anti-Flag antibodies. The immunoprecipitates were subjected to Western blot using anti-phosphorylation LRRK2 antibodies at S935 and S2032 residues as described previously. In some cases, immunoprecipitates were incubated with kinase reaction buffer for 90 min at 30° C. containing 50 mM MgCl2, 500 μM ATP, and 10 μCi of [γ-^32P]ATP (3,000 Ci/mmol) followed by 4-12% SDS/PAGE separation and blotted onto PVDF membranes. Quantification was performed with a phosphoimager (Bio-Rad Molecular Imager FX). GTP binding assays were performed. […]
For LRRK2 phosphorylation assays, HEK293T cells were transfected with various LRRK2 variants for 36 h, then were incubated in media without serum for 12 hours. […] The LRRK2 autophosphorylation with ^32P incorporation was separated by SDS/PAGE gel and quantified with a phosphoimager (Bio-Rad Molecular Imager).

LRRK2 [2] = molecular target: T2, LRRK2 (Mus musculus, UniProt Q5S006, G2019S); assay: brain LRRK2 phosphorylation (kinase activity) in G2019S-LRRK2-BAC transgenic mice; assay type: in vivo; conditions: 1 h after injection
T2 construct: tissue Jackson Laboratory 012467; host or cells: brain homogenate of G2019S-LRRK2-BAC transgenic mice
T2 sequence (Q5S006 whole entry G2019S): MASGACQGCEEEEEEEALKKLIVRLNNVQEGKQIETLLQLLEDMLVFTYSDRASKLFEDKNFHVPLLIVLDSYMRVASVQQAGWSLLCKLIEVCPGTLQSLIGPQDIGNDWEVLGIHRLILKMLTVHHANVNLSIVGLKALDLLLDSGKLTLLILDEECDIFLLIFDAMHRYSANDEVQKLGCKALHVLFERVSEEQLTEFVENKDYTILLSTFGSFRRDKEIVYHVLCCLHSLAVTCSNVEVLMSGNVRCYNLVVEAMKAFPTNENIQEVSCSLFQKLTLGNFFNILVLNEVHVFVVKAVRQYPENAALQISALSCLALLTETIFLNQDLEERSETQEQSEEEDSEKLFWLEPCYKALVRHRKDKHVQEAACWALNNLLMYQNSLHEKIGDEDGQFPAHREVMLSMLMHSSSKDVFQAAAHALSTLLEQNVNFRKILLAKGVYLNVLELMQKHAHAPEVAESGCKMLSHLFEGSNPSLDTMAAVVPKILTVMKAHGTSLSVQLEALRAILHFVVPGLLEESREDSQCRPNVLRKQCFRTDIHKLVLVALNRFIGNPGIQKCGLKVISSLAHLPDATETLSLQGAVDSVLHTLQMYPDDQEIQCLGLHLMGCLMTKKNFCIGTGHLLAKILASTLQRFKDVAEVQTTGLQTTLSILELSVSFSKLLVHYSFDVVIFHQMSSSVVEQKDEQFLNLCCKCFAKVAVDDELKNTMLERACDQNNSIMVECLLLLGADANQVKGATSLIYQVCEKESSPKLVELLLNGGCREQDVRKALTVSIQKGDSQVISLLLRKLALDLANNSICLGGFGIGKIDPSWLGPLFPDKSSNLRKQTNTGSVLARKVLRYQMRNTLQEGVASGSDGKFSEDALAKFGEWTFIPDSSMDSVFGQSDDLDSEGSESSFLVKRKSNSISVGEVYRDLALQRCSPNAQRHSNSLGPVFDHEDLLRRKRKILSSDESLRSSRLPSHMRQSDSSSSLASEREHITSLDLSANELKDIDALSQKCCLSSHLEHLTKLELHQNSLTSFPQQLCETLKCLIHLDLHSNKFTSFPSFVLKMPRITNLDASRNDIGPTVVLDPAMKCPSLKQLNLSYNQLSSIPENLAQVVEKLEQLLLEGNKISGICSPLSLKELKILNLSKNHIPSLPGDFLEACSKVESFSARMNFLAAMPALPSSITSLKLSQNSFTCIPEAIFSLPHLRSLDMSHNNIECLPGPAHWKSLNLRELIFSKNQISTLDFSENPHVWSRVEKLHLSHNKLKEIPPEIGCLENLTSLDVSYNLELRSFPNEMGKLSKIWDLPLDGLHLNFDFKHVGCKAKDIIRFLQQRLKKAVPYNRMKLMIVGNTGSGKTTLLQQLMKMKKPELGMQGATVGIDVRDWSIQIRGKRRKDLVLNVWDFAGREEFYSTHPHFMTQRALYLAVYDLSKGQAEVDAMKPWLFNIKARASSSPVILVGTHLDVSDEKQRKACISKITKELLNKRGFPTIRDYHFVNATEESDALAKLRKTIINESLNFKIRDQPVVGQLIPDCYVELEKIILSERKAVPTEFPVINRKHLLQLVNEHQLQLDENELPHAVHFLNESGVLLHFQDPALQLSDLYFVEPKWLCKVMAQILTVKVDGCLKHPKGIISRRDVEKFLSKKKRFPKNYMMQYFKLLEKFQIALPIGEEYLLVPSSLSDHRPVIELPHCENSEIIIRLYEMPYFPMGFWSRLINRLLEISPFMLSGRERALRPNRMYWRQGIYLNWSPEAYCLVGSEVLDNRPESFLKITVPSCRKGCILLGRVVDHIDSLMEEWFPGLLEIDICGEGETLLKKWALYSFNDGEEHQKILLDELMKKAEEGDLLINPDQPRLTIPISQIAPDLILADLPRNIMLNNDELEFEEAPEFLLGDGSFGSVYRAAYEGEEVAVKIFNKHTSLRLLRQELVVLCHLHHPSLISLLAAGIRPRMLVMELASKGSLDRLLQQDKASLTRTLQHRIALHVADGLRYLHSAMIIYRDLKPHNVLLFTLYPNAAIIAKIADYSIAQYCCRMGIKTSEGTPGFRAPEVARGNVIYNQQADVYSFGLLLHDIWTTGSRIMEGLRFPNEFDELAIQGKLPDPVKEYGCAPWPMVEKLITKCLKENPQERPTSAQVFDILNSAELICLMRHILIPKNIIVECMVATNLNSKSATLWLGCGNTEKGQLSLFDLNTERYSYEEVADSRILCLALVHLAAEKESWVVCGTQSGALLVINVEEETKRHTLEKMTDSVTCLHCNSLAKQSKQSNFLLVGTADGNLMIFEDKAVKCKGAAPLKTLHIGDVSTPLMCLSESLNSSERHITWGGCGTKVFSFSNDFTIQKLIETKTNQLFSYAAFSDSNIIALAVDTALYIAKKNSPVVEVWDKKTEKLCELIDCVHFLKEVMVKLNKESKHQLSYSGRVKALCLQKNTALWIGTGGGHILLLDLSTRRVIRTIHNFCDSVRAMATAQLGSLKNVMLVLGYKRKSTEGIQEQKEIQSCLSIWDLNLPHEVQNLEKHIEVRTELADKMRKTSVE
Method: (§1) To assess whether 70 and 68 alter LRRK2 activities in vivo, G2019S-LRRK2-BAC transgenic mice were used. […] Only the effects of 68 on LRRK2 functions were tested in vivo using G2019S-LRRK2-BAC transgenic mice. Vehicle or 68 at 10 and 20 mg/kg was injected intraperitoneally for one hour. Mouse brain homogenates were subjected to LRRK2 autophosphorylation and GTP binding assays.
LRRK2 kinase assay was adapted from previous studies using autophosphorylation of cell lysates or brain homogenates. Briefly, HEK 293T were transiently transfected with various LRRK2 variants or kinase domain fragments for 36 h, followed by no serum starvation for 12 h, and then treated with compound 70 and 68 for 1 h. The cells were harvested using lysis buffer (Cell Signaling). Mouse brains were homogenated using RIPA buffer (Cell Signaling). The resulting cell lysates or brain homogenates were immunoprecipitated using anti-Flag antibodies. […] Quantification was performed with a phosphoimager (Bio-Rad Molecular Imager FX). […]
To assess the effects of FX2149 on LRRK2 in brains compared with 68, both 68 and FX2149 were injected intraperitoneally into G2019S-BAC-LRRK2 transgenic mice at 10 and 20 mg/kg doses. […] To further confirm the effect of FX2149, we also assessed a LRRK2 downstream effector, 4E-BP phosphorylation. […]

LRRK2 [3] = assay: LRRK2 GTP binding assay (GTP-agarose pull-down from lysates of transfected HEK293T cells); design: species or system human; conditions: for effect on wild type and PD-linked mutant LRRK2 GTP-binding activity: 10 μM
Method: LRRK2 kinase assay was adapted from previous studies using autophosphorylation of cell lysates or brain homogenates. Briefly, HEK 293T were transiently transfected with various LRRK2 variants or kinase domain fragments for 36 h, followed by […] serum starvation for 12 h, and then treated with compound 70 and 68 for 1 h. The cells were harvested using lysis buffer (Cell Signaling). Mouse brains were homogenated using RIPA buffer (Cell Signaling). The resulting cell lysates or brain homogenates were immunoprecipitated using anti-Flag antibodies. The immunoprecipitates were subjected to Western blot using anti-phosphorylation LRRK2 antibodies at S935 and S2032 residues as described previously. In some cases, immunoprecipitates were incubated with kinase reaction buffer for 90 min at 30° C. containing 50 mM MgCl2, 500 μM ATP, and 10 μCi of [γ-^32P]ATP (3,000 Ci/mmol) followed by 4-12% SDS/PAGE separation and blotted onto PVDF membranes. Quantification was performed with a phosphoimager (Bio-Rad Molecular Imager FX). GTP binding assays were performed. […] The resulting beads were washed three times with cell lysis buffer, and bound protein was eluted by adding SDS-PAGE sample buffer and heating for 10 min at 72° C. Precipitates were subjected to Western blot analysis using anti-Flag antibodies.
GTP binding assays were performed using GTP-agarose beads (Sigma) as described previously. Lysates of HEK 293T cells expressing LRRK2 proteins were incubated with 68 or FX2149 at various concentrations for 1 h. The GTP-agarose beads were added for an additional 2 h. The samples were subjected to Western blot analysis using anti-Flag antibodies. LRRK2 kinase assays were performed using LRRK2 phosphorylation and in vitro ^32P incorporation methods as described previously.

[4] = test system: LPS-induced microglia activation and LRRK2 upregulation; assay: LPS-based mouse neuroinflammation model, immunohistochemistry of substantia nigra; assay type: in vivo
Method: G2019S-LRRK2-BAC (Jackson, Lab. Cat: 012467) transgenic mice were food deprived for 4 h before surgery. There were 4 to 6 mice in each experimental group. Mice were anesthetized with isoflurane. LPS ([…] containing 15,000 endotoxin units, Sigma) was injected into the substantia nigra pars compacta unilaterally with a 1 μl volume at 0.2 μl/min flow rate as described previously. The stereotaxic coordinates were −3.4 anteroposterior (AP), −1.1 ML, and −3.9 DV with respect to bregma. After injection, the needle was kept in place for 5 min before withdrawal to avoid LPS leakage up the cannula track. […] Then 68 was injected twice daily for three days. The mice were perfused with 4% paraformaldehyde (PFA) in PBS and the brains were dissected and frozen in isopentane and stored in a −80° C. freezer for immunostaining Animal usage was approved by the University of Maryland School of Pharmacy.
Mice were perfused with saline and 4% paraformaldehyde. Frozen mouse brains were sectioned through the substantia nigra at 30 μm and the sections were subjected to immunohistochemical analysis as described previously. Briefly, frozen sections were placed in 0.6% H2O2 in methanol for 10 min followed by 5% normal goat serum (Sigma) to block non-specific reactions. Sections were then sequentially incubated with primary antibodies and biotinylated anti-rabbit secondary antibodies (Vector Laboratories) and avidin-biotin-peroxidase complex (ABC Elite kit, Vector Laboratories). Anti-LRRK2 (MJFF), anti-phosphorylated LRRK2 S935 (MJFF), and anti-isolectin antibodies were used as primary antibodies. Isolectin-B4:FITC or Isolectin-B4:Biotin were from Sigma. Some tissue sections were visualized by peroxidase reaction using diaminobenzidine (DAB, Sigma). Some tissue sections were probed with Alexa Fluor 488 goat anti-mouse (rabbit) IgG and Alexa Fluor 568 goat anti-mouse (rabbit) IgG (Invitrogen) as secondary antibodies. The specificity of the immunostaining was checked by incubating adjacent sections with each preabsorbed primary antibody. […] The density of red and green fluorescence in the 6 consecutive sections crossing the LPS injection site of each mouse was quantified using NIH image-J software. Six microscope field images (20×) from one brain section were subjected to fluorescence density quantification. […]
G2019S-LRRK2-BAC transgenic mice were anesthetized with isoflurane and injected with LPS (15,000 endotoxin units, 5 μg, Sigma) for each mouse in the substantia nigra pars compacta (SN) unilaterally as described previously. […] Some sections were added with anti-rabbit (mouse) biotinylated secondary antibody and avidin-biotin-peroxidase complex (Vector Laboratories), and detected by diaminobenzidine (DAB, Sigma). […]

LRRK2 [5] = molecular target: T2, LRRK2; assay: brain LRRK2 GTP binding in G2019S-LRRK2-BAC transgenic mice; assay type: in vivo; conditions: for effect on brain LRRK2 GTP binding activity: 1 h after injection
Method: as §1
LRRK2 kinase assay was adapted from previous studies using autophosphorylation of cell lysates or brain homogenates. Briefly, HEK 293T were transiently transfected with various LRRK2 variants or kinase domain fragments for 36 h, followed by […] serum starvation for 12 h, and then treated with compound 70 and 68 for 1 h. The cells were harvested using lysis buffer (Cell Signaling). Mouse brains were homogenated using RIPA buffer (Cell Signaling). The resulting cell lysates or brain homogenates were immunoprecipitated using anti-Flag antibodies. The immunoprecipitates were subjected to Western blot using anti-phosphorylation LRRK2 antibodies at S935 and S2032 residues as described previously. In some cases, immunoprecipitates were incubated with kinase reaction buffer for 90 min at 30° C. containing 50 mM MgCl2, 500 μM ATP, and 10 μCi of [γ-^32P]ATP (3,000 Ci/mmol) followed by 4-12% SDS/PAGE separation and blotted onto PVDF membranes. Quantification was performed with a phosphoimager (Bio-Rad Molecular Imager FX). GTP binding assays were performed. Cell lysates or brain homogenates (100 μg protein/per reaction) were incubated with vehicle or compounds at 1-50 μM concentration for 1 h followed by addition of GTP-agarose beads (Sigma) for an additional 2 h at 4° C. The resulting beads were washed three times with cell lysis buffer, and bound protein was eluted by adding SDS-PAGE sample buffer and heating for 10 min at 72° C. Precipitates were subjected to Western blot analysis using anti-Flag antibodies.
To assess the effects of FX2149 on LRRK2 in brains compared with 68, both 68 and FX2149 were injected intraperitoneally into G2019S-BAC-LRRK2 transgenic mice at 10 and 20 mg/kg doses. One hour after the injection, the mouse brain homogenates were subjected to LRRK2 GTP binding and kinase assays. Both 68 (20 mg/kg) and FX2149 (10 mg/kg) reduced LRRK2 GTP binding activity in mouse brains (FIGS. 32 and 33). […] To further confirm the effect of FX2149, we also assessed a LRRK2 downstream effector, 4E-BP phosphorylation. 4E-BP is a […] that can be phosphorylated by LRRK2. […] FX2149 at a 10 mg/kg dose reduced 4E-BP up to 15% of the untreated control group, while 68 at a 20 mg/kg dose reduced 4E-BP up to 15% of the untreated control group.

[6] = test system: SH-SY5Y cells expressing G2019S-LRRK2; assay: SH-SY5Y cell viability assay (G2019S-LRRK2-induced neuronal degeneration); assay type: cell-based, human
Method: Mouse primary cortical neurons were derived from CD-1 outbred mice (The Jackson Laboratory) at embryonic day 16 and cultured on 24 well plates coated with laminin- and poly-D-lysine-coated plates (BD Biosource, San Diego). Neurons were grown in neurobasal medium containing B-27 supplement, Glutamax, and penicillin/streptomycin. LRRK2 constructs were transfected into mouse primary cortical neurons using Lipofectamine 2000 (Invitrogen) according to the manufacturer's protocol. Cell viability assays were conducted. pcDNA3.1-GFP and FLAG-LRRK2 constructs at 1:15 ratio were cotransfected into SH-SY5Y cells (neurons) in 10% FBS OPTI-I media for 24 h. The media were changed to DMEM containing N2 supplement for 24 h. Cell viability was measured by counting GFP-positive viable cells (neurons) from 20 randomly selected fields using fluorescence microscopy. Viable cells (neurons) with one smooth extension (neurite) twice the length of the cell body were counted.
SH-SY5Y cell viability assays were conducted as described. […] Cell viability was measured by counting the healthy viable cells that contained at least one smooth extension (neurite) that was twice the length of the cell body from 20 randomly selected fields using fluorescence microscopy. […] The quantification for LRRK2 toxicity was performed by an investigator who was blind to transfection groups.

reduction of G2019S-LRRK2 kinase activity (phosphorylation at S935 and S2032) (G2019S-LRRK2; 100 nM) [%]	effect on brain LRRK2 kinase activity (LRRK2 [2]; 10 mg/kg i.p.)	effect on brain LRRK2 GTP binding activity (LRRK2 [5]; 10 mg/kg i.p.)	brain (BBB) penetration inferred from brain LRRK2 GTP binding and kinase inhibition (LRRK2 [5]; after i.p. injection)	improvement of in vivo efficacy over 68 (LRRK2 [5]; mouse, in vivo)	effect on LRRK2 phosphorylation (G2019S-LRRK2; 10 μM)	effect on brain LRRK2 phosphorylation (kinase activity) (LRRK2 [2]; 20 mg/kg i.p.)	effect on brain LRRK2 GTP binding activity (LRRK2 [5]; 20 mg/kg i.p.)	SMILES	TUNEL-positive cells expressing mutant G2019S-LRRK2 [1]	reduction of LRRK2 GTP binding activity (LRRK2 [3]; 10 nM) [%]	effect on LRRK2 binding with GTP (LRRK2 [3]; 1 and 10 nM)	effect on mutant LRRK2 variants (G2019S and R1441C) bound with GTP (LRRK2 [3]; 1 and 10 nM)	reduction of LPS-induced microglia activation compared with vehicle treated LPS mice ([4]; 10 mg/kg) [%]	LPS-induced LRRK2-positive immunostaining compared with vehicle controls ([4]; 10 mg/kg i.p.)	anti-phosphorylated-LRRK2 immunoactivity ([4]; 10 mg/kg i.p.)	isolectin B4 immunoactivity compared with the LPS alone treated group ([4]; 10 mg/kg i.p., twice daily for three days) [%]	protection against mutant LRRK2-induced neurodegeneration ([6]; 50-200 nM)	viability of cells expressing G2019S-LRRK2 compared with vehicle treated cells ([6]; treated for 48 hours)	effect on wild type and PD-linked mutant LRRK2 GTP-binding activity (LRRK2 [3])
~90	significantly reduced	reduced	taken up into brains at a greater extent	more than 2 fold				CCCNC(=O)c1cccc(NS(=O)(=O)c2cccnc2)c1 [FX2149, N-propyl-3-(pyridine-3-sulfonamido)benzamide]	significantly reduced	~90	significantly reduced	reduced	57	significantly reduced	significantly reduced	~43	protected	significantly increased	
					did not alter	did not alter	did not alter	CC(C)NC(=O)c1cccc(NS(=O)(=O)c2cccnc2)c1 [FX2151, N-isopropyl-3-(pyridine-3-sulfonamido)benzamide]											did not alter
								O=C1Nc2ccc(I)cc2/C1=C/c1cc(Br)c(O)c(Br)c1 [GW5074, reference compound]											did not alter
